Columns and labels:
[1] = biological target: T1, Lysosomal alpha-glucosidase (Homo sapiens, UniProt P10253); test: Inhibition of wild type recombinant GAA preincubated for 5 mins measured after 45 mins using blue-shifted dye by fluorescence assay
[2] = biological target: T1, Lysosomal alpha-glucosidase; test: Inhibition of wild type recombinant GAA preincubated for 5 mins measured after 45 mins using red-shifted dye by fluorescence assay

Compound | IC50 [1] | IC50 [2] | IC50 ([1]; read-out: IC50) [µM] | IC50 ([2]; read-out: IC50) [µM]
CC(=O)N1CCN(c2ccc(NS(=O)(=O)c3ccc4c(c3)CC(=O)N4)cc2)CC1 | Not Active | Not Active |  | 
CC(=O)c1ccc(N2CCN(C(=O)c3ccc4c(c3)CC(=O)N4)CC2)cc1 | Not Active | Not Active |  | 
CC(=O)N1CCN(S(=O)(=O)c2ccc3c(c2)CC(=O)N3)CC1 |  |  | 11.9 | 14.9
O=C1Cc2cc(S(=O)(=O)N3CCNCC3)ccc2N1 | Not Active | Not Active |  | 
CC(=O)c1ccc(N2CCN(S(=O)(=O)c3ccc4c(c3)C(Cl)(Cl)C(=O)N4)CC2)cc1 |  |  | 32.6 | 41
CC(=O)c1ccc(N2CCN(S(=O)(=O)c3ccc4[nH]c(=O)[nH]c4c3)CC2)cc1 | Not Active | Not Active |  | 
CC(=O)c1ccc(N2CCN(S(=O)(=O)c3ccc4[nH]c(=O)oc4c3)CC2)cc1 | Not Active | Not Active |  | 
CC(=O)c1ccc(N2CCN(S(=O)(=O)c3ccc4c(c3)C(=O)OC4)CC2)cc1 | Not Active | Not Active |  | 
CC(=O)c1ccc(N2CCN(S(=O)(=O)c3ccc4c(c3)oc(=O)n4C)CC2)cc1 | Not Active | Not Active |  | 
CC(=O)c1ccc(N2CCN(S(=O)(=O)c3ccc4c(c3)n(C)c(=O)n4C)CC2)cc1 | Not Active | Not Active |  | 
CC(=O)c1ccc(N2CCN(S(=O)(=O)c3ccc4c(c3)CC(C)N4C(C)=O)CC2)cc1 (stereo not drawn) | Not Active | Not Active |  | 
CC(=O)c1ccc(N2CCN(S(=O)(=O)c3ccc4c(c3)CCC(=O)N4)CC2)cc1 | Not Active | Not Active |  | 
CC(=O)c1ccc(N2CCN(S(=O)(=O)c3ccc4c(c3)CCCN4C(C)=O)CC2)cc1 | Not Active | Not Active |  | 
CC(=O)Nc1ccc(S(=O)(=O)N2CCN(c3ccc(C(C)=O)cc3)CC2)cc1 | Not Active | Not Active |  | 
CC(=O)c1ccc(N2CCN(S(=O)(=O)c3ccc4c(c3)CCCC(=O)N4)CC2)cc1 | Not Active | Not Active |  | 
CC(=O)c1ccc(N2CCN(C(=O)c3ccc4c(c3)CCC(=O)N4)CC2)cc1 | Not Active | Not Active |  | 
CC(=O)c1ccc(N2CCN(S(=O)(=O)c3ccc4c(c3)OCC(=O)N4)CC2)cc1 | Not Active | Not Active |  | 
CC(=O)c1ccc(N2CCN(S(=O)(=O)c3ccc(N4CCCC4=O)cc3)CC2)cc1 | Not Active | Not Active |  | 

Other lines, results leading:

IC50 [1] | IC50 [2] | IC50 ([1]; read-out: IC50) [µM] | IC50 ([2]; read-out: IC50) [µM] | Compound
 |  | 13 | 13 | O=C1Cc2cc(S(=O)(=O)N3CCN(c4ccc(CO)cc4)CC3)ccc2N1
Not Active | Not Active |  |  | O=C1Cc2cc(S(=O)(=O)N3CCN(c4ccc(Br)cc4)CC3)ccc2N1
Not Active | Not Active |  |  | O=C1Cc2cc(S(=O)(=O)N3CCN(c4ccc(F)cc4)CC3)ccc2N1
 |  | 23.7 | 18.8 | COc1ccc(N2CCN(S(=O)(=O)c3ccc4c(c3)CC(=O)N4)CC2)cc1
 |  | 3.66 | 4.11 | O=Cc1ccc(N2CCN(S(=O)(=O)c3ccc4c(c3)CC(=O)N4)CC2)cc1
 |  | 25.9 | 36.6 | COC(=O)c1ccc(N2CCN(S(=O)(=O)c3ccc4c(c3)CC(=O)N4)CC2)cc1
 |  | 94.3 | 94.3 | O=C1Cc2cc(S(=O)(=O)N3CCN(c4ccc(Cl)cc4)CC3)ccc2N1
Not Active | Not Active |  |  | O=C1Cc2cc(S(=O)(=O)N3CCN(c4ccc(C(F)(F)F)cc4)CC3)ccc2N1
 |  | 14.9 | 14.9 | O=C1Cc2cc(S(=O)(=O)N3CCN(c4cccc(C(F)(F)F)c4)CC3)ccc2N1
Not Active | Not Active |  |  | Cc1ccc(N2CCN(S(=O)(=O)c3ccc4c(c3)CC(=O)N4)CC2)cc1
 |  | 3.66 | 3.26 | O=C1Cc2cc(S(=O)(=O)N3CCN(c4ccc([N+](=O)[O-])cc4)CC3)ccc2N1
